Source: patent publication US11786507B2, “Methods of treating HIV-associated neurological disorders (HAND)” (priority 2020, dated 2023)
“Also recorded” adds a separate entry of the source.

How the values were obtained:
iTat mice = assay: Western blotting of SYP, PSD-95, GFAP, Iba-1 in cortex and hippocampus; type: in vivo, mouse
From the text: (§1) Doxycycline (Dox)-inducible and astrocyte-specific HIV-1 Tat-transgenic mice (iTat) were generated as previously described.^38 Wild-type (Wt, C57BL/6) and α7 nAChR knockout mice (α7^−/−, B6.129S7-Chrna^7tm1Ba/J) were purchased from the Jackson Laboratory (Bar Harbor, ME). All the animal procedures were approved by the Institutional Animal Care and Use Committee. Mice were housed with a 12-hour light and 12-hour dark photoperiod and provided water and food ad libitum. α7^−/− iTat mice were generated by cross breeding iTat mice with α7^−/− mice. α7^−/− genotyping was slightly modified with the JumpStart™ Taq DNA Polymerase-based PCR (JumpStart™ Taq DNA Polymerase, Sigma, catalog #D9307). […] Mice of 10-14 weeks old with body weights of 20-35 grams were fed with Dox-containing diet (0.625 g/kg, Envigo, catalog #TD.01306) as stated.
A RIPA buffer (50 mM Tris.HCl, pH 8.0, 280 mM NaCl, 0.5% NP-40, 1% C24H39NaO4, 0.2 mM EDTA, 2 mM EGTA and 10% glycerol) supplemented with protease inhibitors (Millipore-Sigma, catalog #S8830) and phosphatase inhibitors (Millipore-Sigma, catalog #4906845001) was used to lyse the brain tissues and cultured cells with brief sonication on ice. Protein concentrations of the lysates were determined using a Bio-Rad DC protein assay kit (Bio-Rad, catalog #5000111). Lysates were denatured in the SDS-PAGE loading buffer at 100° C. for 10 min, then electrophoretically separated by 8-15% SDS-PAGE, blotted onto 0.45 μm polyvinylidene fluoride membrane (GE Healthcare Life Sciences, catalog #10600023), and probed using appropriate antibodies against PSD-95 (Abcam, catalog #ab18258, and 1:2000 dilution), SYP (Abcam, catalog #ab8049, and 1:1000 dilution), Iba-1 (Wako, catalog #016-20001, and 1:500 dilution) and GFAP (DAKO, catalog #z330s, and 1:2000 dilution), p-p38 (Santa Cruz, catalog #sc-166182, and 1:1000 dilution), p38 (Santa cruz, catalog #sc-535, and 1:1000 dilution), p-JNK (Santa cruz, catalog #sc-6254, and 1:1000 dilution), JNK (Santa cruz, catalog #sc-571, and 1:1000 dilution), p-ERK (Santa cruz, catalog #sc-7383, and 1:1000 dilution), and ERK (Santa cruz, catalog #sc-514302, and 1:1000 dilution), α7 nAChR (Alomone, catalog #ANC-007, and 1:1000 dilution) and β-actin (Sigma-Aldrich, catalog #A1978, and 1:2000 dilution). A Bio-Rad ChemicDoc imaging system (Bio-Rad) and Image J were used for image capturing and analysis, respectively. […]

MAPK signaling pathways = assay: Western blotting of total and phosphorylated p38, JNK, ERK in cortex and hippocampus; type: in vivo, mouse; conditions: PAM 15 mg/kg/day s.c.
From the text: as §1
A RIPA buffer (50 mM Tris.HCl, pH 8.0, 280 mM NaCl, 0.5% NP-40, 1% C24H39NaO4, 0.2 mM EDTA, 2 mM EGTA and 10% glycerol) supplemented with protease inhibitors (Millipore-Sigma, catalog #S8830) and phosphatase inhibitors (Millipore-Sigma, catalog #4906845001) was used to lyse the brain tissues and cultured cells with brief sonication on ice. Protein concentrations of the lysates were determined using a Bio-Rad DC protein assay kit (Bio-Rad, catalog #5000111). Lysates were denatured in the SDS-PAGE loading buffer at 100° C. for 10 min, then electrophoretically separated by 8-15% SDS-PAGE, blotted onto 0.45 μm polyvinylidene fluoride membrane (GE Healthcare Life Sciences, catalog #10600023), and probed using appropriate antibodies against PSD-95 (Abcam, catalog #ab18258, and 1:2000 dilution), SYP (Abcam, catalog #ab8049, and 1:1000 dilution), Iba-1 (Wako, catalog #016-20001, and 1:500 dilution) and GFAP (DAKO, catalog #z330s, and 1:2000 dilution), p-p38 (Santa Cruz, catalog #sc-166182, and 1:1000 dilution), p38 (Santa cruz, catalog #sc-535, and 1:1000 dilution), p-JNK (Santa cruz, catalog #sc-6254, and 1:1000 dilution), JNK (Santa cruz, catalog #sc-571, and 1:1000 dilution), p-ERK (Santa cruz, catalog #sc-7383, and 1:1000 dilution), and ERK (Santa cruz, catalog #sc-514302, and 1:1000 dilution), α7 nAChR (Alomone, catalog #ANC-007, and 1:1000 dilution) and β-actin (Sigma-Aldrich, catalog #A1978, and 1:2000 dilution). A Bio-Rad ChemicDoc imaging system (Bio-Rad) and Image J were used for image capturing and analysis, respectively.
It was next determined which MAPK signaling pathways were responsive to PAM neuroprotective effects against Tat-induced neuropathologies. Both CORT and HIP were analyzed for expression and phosphorylation of p38, JNK, and ERK.

[1] = CORT, PAM 15 mg/kg/day s.c. vs DMSO

**Q.** `COc1cc(OC)c(NC(=O)Nc2cc(C)on2)cc1Cl` [PAM, 1-(5-chloro-2,4-dimethoxy-phenyl)-3-(5-methyl-isoxazol-3-yl)-urea] was tested. Which GFAP expression (iTat mice; [1]) did it give?
**A.** completely reversed the increases; also recorded: decreased GFAP in iTat mice

**Q.** What about the Iba-1 expression (iTat mice; [1]) of the same compound?
**A.** decreased Iba-1 in both Wt and iTat mice

**Q.** And the PSD-95 expression (iTat mice; [1])?
**A.** significant increases of PSD-95 in Wt mice and even more in iTat mice

**Q.** What about the SYP expression (iTat mice; [1]) of the same compound?
**A.** no changes

**Q.** What about the “SYP and GFAP expression” value (iTat mice; HIP, DMSO- vs PAM-treated mice) of the same compound?
**A.** no differences of SYP and GFAP

**Q.** What about the PSD-95 expression (iTat mice; HIP, PAM 15 mg/kg/day s.c. vs DMSO) of the same compound?
**A.** increased PSD-95 in both Wt and iTat mice

**Q.** And the “p38 and p-p38α” value (MAPK signaling pathways; CORT and HIP)?
**A.** increases of both p38 and p-p38α in both CORT and HIP

**Q.** What about the p-ERK (MAPK signaling pathways; CORT and HIP, iTat and Wt mice) of the same compound?
**A.** no differences of p-ERK in CORT and HIP of both iTat and Wt mice

**Q.** And the JNK (MAPK signaling pathways; CORT, Wt and iTat mice)?
**A.** increases of JNK in CORT of Wt mice, increases of JNK in CORT of iTat mice

**Q.** And the p-JNK (MAPK signaling pathways; CORT, all mice)?
**A.** no differences of p-JNK in CORT of all mice

**Q.** And the “JNK and p-JNK” value (MAPK signaling pathways; HIP, all mice)?
**A.** increases of JNK and p-JNK in HIP of all mice

**Q.** And the ERK (MAPK signaling pathways; HIP, iTat mice)?
**A.** decreases of ERK in HIP of iTat mice
